# Results from BindingDB's records for doi:10.1016/j.bmcl.2005.05.131 (Naeja Pharmaceutical, 2005).
# Columns and labels:
# [1] = molecular target: T1, Cyclin-dependent kinase 4/G1/S-specific cyclin-D1 [L188C] (Homo sapiens, UniProt P11802); experiment: CDKs Assay
# [2] = molecular target: T1, Cyclin-dependent kinase 4/G1/S-specific cyclin-D1 [L188C]
Structure (SMILES),IC50 [1],IC50 [2]
COc1ccc2cnc(Nc3ccc(N4CCNCC4)cc3)nc2c1C1CCCC1 [8-cyclopentyl-7-methoxy-N-[4-(piperazin-1-yl)phenyl]quinazolin-2-amine],1 nM,–
COc1ccc2cnc(Nc3ccc(N4CCOCC4)cc3)nc2c1C(C)C [7-methoxy-N-[4-(morpholin-4-yl)phenyl]-8-(propan-2-yl)quinazolin-2-amine],–,52 nM
COc1ccc2cnc(Nc3ccc(N4CCC(N)C4)cc3)nc2c1C(C)C (configuration not stated) [N-[4-(3-aminopyrrolidin-1-yl)phenyl]-7-methoxy-8-(propan-2-yl)quinazolin-2-amine],–,11 nM
CC(C)c1c(O)ccc2cnc(Nc3ccccc3)nc12 [2-(phenylamino)-8-(propan-2-yl)quinazolin-7-ol],325 nM,–
COc1ccc2cnc(Nc3ccccc3)nc2c1C(C)C [7-methoxy-N-phenyl-8-(propan-2-yl)quinazolin-2-amine],–,125 nM
COc1ccc2cnc(Nc3ccc(N4CCN(C(=O)CN)CC4)cc3)nc2c1C1CCCC1 [2-amino-1-(4-{4-[(8-cyclopentyl-7-methoxyquinazolin-2-yl)amino]phenyl}piperazin-1-yl)ethan-1-one],2 nM,–
COc1ccc2cnc(Nc3ccc(N4CCCCC4)cc3)nc2c1C(C)C [7-methoxy-N-[4-(piperidin-1-yl)phenyl]-8-(propan-2-yl)quinazolin-2-amine],–,52 nM
COc1ccc2cnc(Nc3ccc(N4CCCC4)cc3)nc2c1C(C)C [7-methoxy-8-(propan-2-yl)-N-[4-(pyrrolidin-1-yl)phenyl]quinazolin-2-amine],–,560 nM
COc1ccc2cnc(Nc3ccc(N4CCNCC4)c(F)c3)nc2c1C1CCCC1 [8-cyclopentyl-N-[3-fluoro-4-(piperazin-1-yl)phenyl]-7-methoxyquinazolin-2-amine],4 nM,–
COc1ccc2cnc(Nc3ccc(N4CCCC4)cc3)nc2c1C1CCCC1 [8-cyclopentyl-7-methoxy-N-[4-(pyrrolidin-1-yl)phenyl]quinazolin-2-amine],1750 nM,–
COc1ccc2cnc(Nc3ccc(N4CCC(N)C4)cc3)nc2c1C1CCCC1 (configuration not stated) [N-[4-(3-aminopyrrolidin-1-yl)phenyl]-8-cyclopentyl-7-methoxyquinazolin-2-amine],115 nM,–
COc1ccc2cnc(Nc3ccc(N4CCN(C(=O)CN)CC4)cc3)nc2c1C(C)C [2-amino-1-[4-(4-{[7-methoxy-8-(propan-2-yl)quinazolin-2-yl]amino}phenyl)piperazin-1-yl]ethan-1-one],10 nM,–
COc1ccc2cnc(Nc3ccc(N4CCNCC4)cc3)nc2c1C(C)C [7-methoxy-N-[4-(piperazin-1-yl)phenyl]-8-(propan-2-yl)quinazolin-2-amine],–,16 nM
COc1ccc2cnc(Nc3ccc(N4CCN(C(C)=O)CC4)cc3)nc2c1C1CCCC1 [1-(4-{4-[(8-cyclopentyl-7-methoxyquinazolin-2-yl)amino]phenyl}piperazin-1-yl)ethan-1-one],2 nM,–
COc1ccc2cnc(Nc3ccc(N4CCOCC4)cc3)nc2c1C1CCCC1 [8-cyclopentyl-7-methoxy-N-[4-(morpholin-4-yl)phenyl]quinazolin-2-amine],18 nM,–
COc1ccc2cnc(Nc3ccc(N4CCN(C(C)=O)CC4)cc3)nc2c1C(C)C [1-[4-(4-{[7-methoxy-8-(propan-2-yl)quinazolin-2-yl]amino}phenyl)piperazin-1-yl]ethan-1-one],–,25 nM
COc1ccc2cnc(Nc3ccc(N4CCCCC4)cc3)nc2c1C1CCCC1 [8-cyclopentyl-7-methoxy-N-[4-(piperidin-1-yl)phenyl]quinazolin-2-amine],11 nM,–
